Test results as given in patent US20050042701A1, “Anti-petasin antibodies, methods for the production thereof and their use” (priority 1998, published 2005).
Read-outs that look alike come from different tables or passages of the source.

Assay: 1st phase clinical test: pharmacokinetics of petasin in serum after single oral administration of tablets containing butterbur extract (open crossover; enzyme immunoassay)
Type: in vivo, human (clinically healthy men)
Settings: for AUCRest: single oral, mean ± SD; for Petasin serum concentration Mean / concentration at 0 h: 0 h p.a.; for concentration at 0 h / concentration at 0.25 h / concentration at 0.5 h / concentration at 0.75 h / concentration at 1 h / concentration at 1.17 h / concentration at 1.5 h / concentration at 1.833 h / concentration at 2.167 h / concentration at 2.5 h / concentration at 3 h / concentration at 4 h / concentration at 5 h / concentration at 6 h / concentration at 8 h / concentration at 12 h / concentration at 24 h: male, human, serum, oral; for concentration at 0.25 h: 0.25 h p.a.; for concentration at 0.5 h: 0.5 h p.a.; for concentration at 0.75 h: 0.75 h p.a.; for concentration at 1 h: 1 h p.a.; for concentration at 1.17 h: 1.17 h p.a.; for concentration at 1.5 h: 1.5 h p.a.; for concentration at 1.833 h: 1.833 h p.a.; for concentration at 2.167 h: 2.167 h p.a.; for concentration at 2.5 h: 2.5 h p.a.; for concentration at 4 h: 4 h p.a.; for concentration at 5 h: 5 h p.a.; for concentration at 6 h: 6 h p.a.; for concentration at 8 h: 8 h p.a.; for concentration at 12 h: 12 h p.a.; for concentration at 24 h: 24 h p.a.
Protocol: Petasin ovalbumin is adsorptively bound to polystyrene microtitration plates in a concentration of […] in 0.1 M carbonate buffer, pH=9.5, (100 μl/well) for 16 hours at 4° C. and thereupon sucked off. After washing it two times with 300 μl/well washing buffer (PBS, 0.1% Tween 20) it is blocked for 2 hours at room temperature with 150 μl/well blocking solution (0.6% gelatine, 0.02% […] in PBS) and subsequently washed three times with washing buffer.
50 μl of the serum sample to be tested or the respective standard (1:4 dilution in a sample buffer (PBS, 1% BSA, 0.1% Tween 20, 0.01% thiomersal) and 50 μL of an optimized anti-serum dilution in a sample buffer are simultaneously incubated with shaking for 1 hour at room temperature. Subsequently, the microtitration plate is washed three times with 300 μl/well of washing buffer and incubated for 30 min. at room temperature with 100 μl of anti-rabbit immunoglobulin peroxidase conjugate, diluted in sample buffer, and once more washed as above. Thereupon, it is incubated for 10 min. with 100 μl of a substrate solution ready for use (3.3′, 5.5′-tetramethyl benzidine) per well and the reaction is stopped by adding 100 μl/well of 0.5 M sulfuric acid. The evaluation is carried out at 450 nm in a microtitration plate reader.
In a 1st phase of the clinical test for determining the pharmacokinetic parameters of tablets containing butterbur extract was a single oral administrations of 2 or 4 tablets to 24 clinically healthy men at the age between 18 and 40 years.
The open, crossover test was chosen as method, single administration of each dose in a randomized order with an interval of at least 7 days between the administrations.
Model-independent pharmacokinetic parameters for petasin Statistical methods:
ANOVA, ANOVAlog, Wilcoxon-Mann-Whitney test, Wilcoxon-sign order test

[1] = 2 tablets, after administering 2 tablets, read-out: Petasin serum concentration Max.
[2] = 2 tablets, after administering 2 tablets, read-out: Petasin serum concentration Mean
[3] = 2 tablets, after administering 2 tablets, read-out: Petasin serum concentration Min.
[4] = 2 tablets, after administering 2 tablets, read-out: Petasin serum concentration Median

C=C(C)C1CC2(C)C(=CC1=O)CCC(OC(=O)/C(C)=C\C)C2C (centres unmarked) [petasin]
AUCRest (2 tablets): 18.3 ± 7.9%
Dose dependence of Cmax and AUC (2 versus 4 tablets): nearly proportional to the dose
Medium maximum petasin concentration (Cmax) after double the dose (4 tablets versus 2 tablets): nearly doubled
Medium time of reaching the maximum serum level (tmax) after double the dose (4 tablets versus 2 tablets): remains constant
AUCRest (4 tablets): 10.8 ± 4.9%
Petasin serum concentration Mean (after administering 4 tablets): <1 ng/mL
Petasin serum concentration Mean (after administering 4 tablets, listed as Petasin): 0.0 ng/mL
Petasin serum concentration Max. (after administering 4 tablets, 3 h p.a.): 49.0 ng/mL
concentration at 0 h [1]: 0 ng/mL
concentration at 0 h [2]: 0 ng/mL
concentration at 0 h [3]: 0 ng/mL
concentration at 0.25 h [1]: 5.5 ng/mL
concentration at 0.25 h [2]: 2.8 ng/mL
concentration at 0.25 h [4]: 2.2 ng/mL
concentration at 0.25 h [3]: 1.1 ng/mL
concentration at 0.5 h [1]: 23.3 ng/mL
concentration at 0.5 h [2]: 7.6 ng/mL
concentration at 0.5 h [4]: 5.9 ng/mL
concentration at 0.5 h [3]: 1.5 ng/mL
concentration at 0.75 h [1]: 23.8 ng/mL
concentration at 0.75 h [2]: 11.9 ng/mL
concentration at 0.75 h [4]: 11 ng/mL
concentration at 0.75 h [3]: 4 ng/mL
concentration at 1 h [1]: 29.3 ng/mL
concentration at 1 h [2]: 15.6 ng/mL
concentration at 1 h [4]: 14.7 ng/mL
concentration at 1 h [3]: 4 ng/mL
concentration at 1.17 h [1]: 62.9 ng/mL
concentration at 1.17 h [2]: 21 ng/mL
concentration at 1.17 h [4]: 15.3 ng/mL
concentration at 1.17 h [3]: 5.6 ng/mL
concentration at 1.5 h [1]: 47.3 ng/mL
concentration at 1.5 h [2]: 19.3 ng/mL
concentration at 1.5 h [4]: 16.1 ng/mL
concentration at 1.5 h [3]: 5.1 ng/mL
concentration at 1.833 h [1]: 44.3 ng/mL
concentration at 1.833 h [2]: 18.2 ng/mL
concentration at 1.833 h [4]: 14.7 ng/mL
concentration at 1.833 h [3]: 7.8 ng/mL
concentration at 2.167 h [1]: 31.7 ng/mL
concentration at 2.167 h [2]: 16.3 ng/mL
concentration at 2.167 h [4]: 14.5 ng/mL
concentration at 2.167 h [3]: 7.3 ng/mL
concentration at 2.5 h [1]: 26.6 ng/mL
concentration at 2.5 h [2]: 13.6 ng/mL
concentration at 2.5 h [4]: 10.2 ng/mL
concentration at 2.5 h [3]: 5.9 ng/mL
concentration at 3 h (2 tablets, after administering 2 tablets, 3 h p.a., read-out: Petasin serum concentration Max.): 18.3 ng/mL
concentration at 3 h (2 tablets, after administering 2 tablets, 3 h p.a., read-out: Petasin serum concentration Mean): 8.8 ng/mL
concentration at 3 h (2 tablets, after administering 2 tablets, 3 h p.a., read-out: Petasin serum concentration Median): 7.7 ng/mL
concentration at 3 h (2 tablets, after administering 2 tablets, 3 h p.a., read-out: Petasin serum concentration Min.): 3.1 ng/mL
concentration at 4 h [1]: 11.2 ng/mL
concentration at 4 h [2]: 4.5 ng/mL
concentration at 4 h [4]: 5.2 ng/mL
concentration at 4 h [3]: 1.7 ng/mL
concentration at 5 h [1]: 8.8 ng/mL
concentration at 5 h [2]: 4.1 ng/mL
concentration at 5 h [4]: 3.4 ng/mL
concentration at 5 h [3]: 1.5 ng/mL
concentration at 6 h [1]: 8.1 ng/mL
concentration at 6 h [2]: 3.2 ng/mL
concentration at 6 h [4]: 3.1 ng/mL
concentration at 6 h [3]: 1.2 ng/mL
concentration at 8 h [1]: 4.2 ng/mL
concentration at 8 h [2]: 1.9 ng/mL
concentration at 8 h [4]: 1.6 ng/mL
concentration at 8 h [3]: 1 ng/mL
concentration at 12 h [1]: 2.9 ng/mL
concentration at 12 h [2]: 1.6 ng/mL
concentration at 12 h [4]: 1.4 ng/mL
concentration at 12 h [3]: 1.1 ng/mL
concentration at 24 h [1]: 2.3 ng/mL
concentration at 24 h [2]: 1.5 ng/mL
concentration at 24 h [4]: 1.3 ng/mL
concentration at 24 h [3]: 1.1 ng/mL
concentration at 0 h (4 tablets, after administering 4 tablets, read-out: Petasin serum concentration Max.): 0 ng/mL
concentration at 0 h (4 tablets, after administering 4 tablets, read-out: Petasin serum concentration Median): < 1 ng/mL
